Molecules are shown by their SMILES.

This assay addresses Neuronal acetylcholine receptor. The experiment in a line: Ability to displace [3H](-)-cytisine from nicotinic acetylcholine receptor (nAChR) in a whole rat brain preparation.
In the case of `COc1ccc(C2CCCN2C)cc1OC` (configuration not stated), affinity was put at a Ki of 9700 nM.

With `COc1cccc(C2CCCN2C)c1` (configuration not stated), the affinity corresponds to a Ki of 597 nM.

The compound `CN1CCCC1c1ccc(C(F)(F)F)cc1` (configuration not stated) came in with a Ki of 931 nM.

`CN1CCCC1c1ccc(F)c(F)c1` (configuration not stated): the Ki was 420 nM.

Compound `CN1CCCC1c1cccc(Cl)c1` (configuration not stated) came in with a Ki of 227 nM.

Regarding `CN1CCCC1c1ccc(Cl)c(Cl)c1` (configuration not stated), the Ki came to 68 nM.

In turn, `COc1ccc(C2CCCN2C)cc1` (configuration not stated) displayed a Ki of 707 nM. This Ki is about 10-fold higher than that of the compound before.

As to `Cc1cccc(C2CCCN2C)c1` (configuration not stated), the Ki was found to be 719 nM.

Compound `Clc1ccc(C2=NCCC2)cc1` came in with a Ki above 10000 nM.

In turn, `CN1CCCC1c1ccc2c(c1)OCO2` (configuration not stated) registered a Ki of 46 nM.

Compound `CN1CCCC1c1ccc(Br)cc1` (configuration not stated) returned a Ki of 75 nM.

For the compound `COc1cc(C2CCCN2C)ccc1O` (configuration not stated), the Ki stood at 8250 nM.

`Fc1cccc(C2=NCCC2)c1` showed a Ki above 10000 nM.

The compound `CN1CCCC1c1ccc(F)cc1` (configuration not stated) returned a Ki of 207 nM. In other words, the sub-micromolar range.

`COc1ccccc1C1CCCN1C` (configuration not stated) displayed a Ki above 10000 nM.

The compound `Cc1ccc(C2CCCN2C)cc1` (configuration not stated) returned an inhibition constant Ki of 1330 nM.

Take `Cc1ccccc1C1CCCN1C` (configuration not stated): the affinity corresponds to a Ki of 9000 nM.

As for `CN1CCCC1c1ccc(Cl)cc1` (configuration not stated), the Ki was 164 nM.

Take `CN1CCCC1c1ccc2c(c1)OCCO2` (configuration not stated): the Ki is 1220 nM. Compared with the last compound, the Ki is about 7.4-fold higher.

On to `c1ccc(C2CCCN2)cc1` (configuration not stated), for which the affinity corresponds to a Ki of 8700 nM.

On to `CN1CCCC1c1cccc(F)c1` (configuration not stated), for which the Ki was determined as 399 nM. Compared with the last compound, the Ki is about 22-fold lower.

With `COc1cc2c(cc1O)CCN1CC=C3C=C[C@H](OC)C[C@]321` [ERYSODINE], the affinity corresponds to a Ki of 5 nM.
